Values joined by “and” are separate entries in the source; they are usually repeats but may differ in a detail not shown here. Equal values may be shown once. Read-outs that look alike come from different tables or passages of the source.
Key:
Type in all cases: physicochemical
[1] = Stability testing, solid state bulk (UPLC, color, XRPD, TGA); details: for Degradation Products (DP), UPLC / TGA (%) Weight loss at 175° C. / XRPD: solid state
Experimental: (§1) X-ray powder diffraction (XRPD) analysis of all polymorph forms was performed using a Bruker D8 Discover x-ray diffractometer with XYZ stage. Measurements were taken at about 40 kV and 1 mA under the following conditions:
(§2) Crystalline Monohydrate Form HA was analysed by thermogravimetric analysis (TGA) using a Discovery Thermogravimetric Analysis Calorimeter from TA instruments under the following conditions (see Table 6).
(§3) No notable change in chemical purity, nor change in XRPD, nor change in TGA, was observed.

[2] = Solubility at 25° C., 24 hours slurry; details: for Solubility / solubility at 24 h: approx. at 25° C., target concentration 10 mg/mL; for Final pH / XRPD of solid after equilibration: 25° C.; for solubility at 24 h: 25 °C, thermodynamic from solid, read-out: Solubility
Experimental: A sample was weighed in a glass vial and solvent added to make a slurry followed by stirring or shaking at 25° C. for 24 hours. The amount of sample and solvents depends on the target concentration, e.g. if the target concentration is 10 mg/mL, the weight of the sample should be 10 mg and the amount of solvent volume should be 1 mL. The solid and liquid are separated by centrifugation at 13000 rpm for 2 minutes with 0.2 μm membrane. The filtrate is then used for the solubility test after appropriate dilution. The diluent is from the UPLC method. The solids obtained after equilibration were analyzed by XRPD after being dried at 40° C. under vacuum for 2 hours. DSC/TGA analysis was conducted for selected samples.

[3] = Particle size distribution by Fraunhofer light diffraction
Experimental: (§4) Pilot manufacture batches producing Modification HA and Form A on kilogram scale were compared for their respective bulk powder properties. The particle size distribution (PSD) was determined according to the corresponding method for release. Other measurements were performed using technical methods known in the art or as described herein.
A few drops of the dispersing aid were added to an appropriate amount of test substance. The mixture was mixed intensively, e.g. on a vortex mixer, in order to wet the substance thoroughly and to form a smooth and homogeneous paste. The resultant paste was diluted with the dispersion liquid to a final volume of 3-6 ml and the dispersion mixed again. The cumulative volume distribution was determined using a laser light diffraction instrument as stated above. The parameters could be adjusted accordingly so that the test dispersion is representative, homogeneous and well dispersed.
Particle sizes were determined at the undersize values of 10%, 50% and 90% (×10, ×50, ×90), and additional values in question, from the cumulative volume distribution.

[4] = Bulk density and flowability with ring shear tester
Experimental: as §4

[5] = Behaviour under compression, grinding and granulation with water
[6] = Hygroscopicity, storage and solubility conclusions
Description: The term “non-hygroscopic” as used herein refers to a compound showing a water uptake of at most 2 w-% in the sorption cycle when measured with GMS (or DVS) at a relative humidity in the range of from 0 to 95% RH and a temperature of (25.0±0.1) ° C., based on the weight of the compound. Non-hygroscopic is preferably up to 0.2%.

[7] = Stability testing, solid state bulk (UPLC, color, XRPD, TGA); parameters: key: A: No change of color; details: solid state
Experimental: as §1, §2, §3

[8] = 1 week/80° C., glass vials with screw caps
[9] = 1 week/80° C./75% RH, open bottles
[10] = 2 weeks/50° C., glass vials with screw caps
[11] = 2 weeks/50° C./75% RH, open bottles
[12] = 2 weeks/80° C., glass vials with screw caps
[13] = 2 weeks/80° C./75% RH, open bottles
[14] = 3 months/40° C./75% RH, open bottles
[15] = 4 weeks/50° C., glass vials with screw caps
[16] = 4 weeks/50° C./75% RH, open bottles
[17] = Xenon light (approx. 1200 kLuxh)
[18] = pilot manufacture batch, kilogram scale

Stability upon light exposure ([1]; 1200 kLuxh for 12 h): stable upon light exposure
Degradation Products (DP), UPLC [1, 8]: 0.27%
TGA (%) Weight loss at 175° C. [1, 8]: 3.60% and 3.56%
XRPD [1, 8]: No change
Degradation Products (DP), UPLC [1, 9]: 0.30% and 0.26%
TGA (%) Weight loss at 175° C. [1, 9]: 3.76% and 3.86%
XRPD [1, 9]: No change
Degradation Products (DP), UPLC [1, 10]: 0.29% and 0.33%
TGA (%) Weight loss at 175° C. [1, 10]: 3.76% and 3.89%
XRPD [1, 10]: No change
Degradation Products (DP), UPLC [1, 11]: 0.27% and 0.25%
TGA (%) Weight loss at 175° C. [1, 11]: 3.66% and 3.65%
XRPD [1, 11]: No change
Degradation Products (DP), UPLC [1, 12]: 0.29%
TGA (%) Weight loss at 175° C. [1, 12]: 3.67% and 3.76%
XRPD [1, 12]: No change
Degradation Products (DP), UPLC [1, 13]: 0.26% and 0.28%
TGA (%) Weight loss at 175° C. [1, 13]: 3.60% and 3.66%
XRPD [1, 13]: No change
Degradation Products (DP), UPLC [1, 14]: 0.53% and 0.30%
TGA (%) Weight loss at 175° C. [1, 14]: 3.55% and 3.60%
XRPD [1, 14]: No change
Degradation Products (DP), UPLC [1, 15]: 0.28% and 0.27%
TGA (%) Weight loss at 175° C. [1, 15]: 3.75% and 3.63%
XRPD [1, 15]: No change
Degradation Products (DP), UPLC [1, 16]: 0.30% and 0.27%
TGA (%) Weight loss at 175° C. [1, 16]: 3.78% and 3.69%
XRPD [1, 16]: No change
Degradation Products (DP), UPLC [1, 17]: 0.36% and 0.30%
TGA (%) Weight loss at 175° C. [1, 17]: 3.76% and 3.90%
XRPD [1, 17]: No change
Stability in bulk ([1]; up to 80° C. over an extended period of time, no notable change in chemical purity, XRPD, TGA): highly stable in bulk
Solubility ([2]; FaSSIF (pH 6.5), LOQ = 0.002517 mg/mL): LOQ
Final pH ([2]; FaSSIF, pH 6.5): 6.44
XRPD of solid after equilibration ([2]; FaSSIF, pH 6.5): No change
solubility at 24 h ([2]; FeSSIF, pH 5.8, fessif, FeSSIF (pH 5.8), LOQ = 0.002517 mg/mL): 3.2 µg/mL
Final pH ([2]; FeSSIF, pH 5.8): 5.69
XRPD of solid after equilibration ([2]; FeSSIF, pH 5.8): No change
Final pH ([2]; SGF (pH 2)): 2.07
XRPD of solid after equilibration ([2]; SGF (pH 2)): No change
solubility at 24 h ([2]; SGF, pH 2, simulated gastric fluid, SGF (pH 2), LOQ = 0.002517 mg/mL): 2.2 µg/mL
Final pH ([2]; Water): 7.22
XRPD of solid after equilibration ([2]; Water): No change
Solubility ([2]; Water, LOQ = 0.002517 mg/mL): LOQ
solubility at 24 h ([2]; acetonitrile, organic solvent or mixture, Acetonitrile): > 10000 µg/mL
solubility at 24 h ([2]; dichloromethane, organic solvent or mixture, Dichloromethane): > 10000 µg/mL
solubility at 24 h ([2]; ethanol abs., organic solvent or mixture, Ethanol abs.): > 10000 µg/mL
solubility at 24 h ([2]; ethyl acetate, organic solvent or mixture, Ethyl acetate): > 10000 µg/mL
solubility at 24 h ([2]; methanol, organic solvent or mixture, Methanol): > 10000 µg/mL
solubility at 24 h ([2]; octanol, organic solvent or mixture, Octanol): > 10000 µg/mL
Final pH ([2]; pH 1 (0.1N HCl)): 1.06
XRPD of solid after equilibration ([2]; pH 1 (0.1N HCl)): No change
Solubility ([2]; pH 1 (0.1N HCl), LOQ = 0.002517 mg/mL): LOQ
Final pH ([2]; pH 2 (0.01N HCl)): 2.12
XRPD of solid after equilibration ([2]; pH 2 (0.01N HCl)): No change
Solubility ([2]; pH 2 (0.01N HCl), LOQ = 0.002517 mg/mL): LOQ
Final pH ([2]; pH 4.7 acetate buffer): 4.73
XRPD of solid after equilibration ([2]; pH 4.7 acetate buffer): No change
Solubility ([2]; pH 4.7 acetate buffer, LOQ = 0.002517 mg/mL): LOQ
Final pH ([2]; pH 6.8 phosphate buffer): 6.74
XRPD of solid after equilibration ([2]; pH 6.8 phosphate buffer): No change
Solubility ([2]; pH 6.8 phosphate buffer, LOQ = 0.002517 mg/mL): LOQ
Final pH ([2]; pH 9.0 borate buffer): 8.88
XRPD of solid after equilibration ([2]; pH 9.0 borate buffer): No change
Solubility ([2]; pH 9.0 borate buffer, LOQ = 0.002517 mg/mL): LOQ
Factor of diameter X10, Monohydrate HA vs. Modification A ([3]; 131 μm vs. 2 μm): > 10
Diameter X of PSD measured during release, X50 [3, 18]: X50: 277 μm
Diameter X of PSD measured during release, X90 [3, 18]: X90: 414 μm
Factor of bulk density, Monohydrate HA versus Modification A ([4]; 696 kg/m^3 versus 71 kg/m^3): ~10
Bulk flowability with ring shear tester, rating in words ([4]; under 1250 Pa normal stress): “free flowing”
Technical measurement of bulk flowability with ring shear tester ([4]; under 1250 Pa normal stress): 13.7
Technical measurement of bulk density with ring shear tester ([4]; under no consolidation stress): 696 kg/m^3
Solubility, overall rating [6]: adequate solubility
Stability when stored in bulk quantities [6]: stable when stored in bulk quantities
Hygroscopicity ([6]; non-hygroscopic defined as water uptake at most 2 w-%, 0 to 95% RH, 25° C. (GMS/DVS)): non-hygroscopic
Color (CL) [7, 8]: A
Color (CL) [7, 9]: A
Color (CL) [7, 10]: A
Color (CL) [7, 11]: A
Color (CL) [7, 12]: A
Color (CL) [7, 13]: A
Color (CL) [7, 14]: A
Color (CL) [7, 15]: A
Color (CL) [7, 16]: A
Color (CL) [7, 17]: A
Compound: Cc1ccc(NC(=O)c2ccnc(C(F)(F)F)c2)cc1-c1cc(OCCO)nc(N2CCOCC2)c1 [Monohydrate HA, N-(3-(2-(2-hydroxyethoxy)-6-morpholinopyridin-4-yl)-4-methylphenyl)-2-(trifluoromethyl)isonicotinamide]
Stability upon compression, grinding and wet granulation with water [5]: stable upon compression, grinding and wet granulation with water

— patent US12187703B2, “Crystalline forms of N-(3-(2-(2-hydroxyethoxy)-6-morpholinopyridin-4-yl)-4-methvlphenyl)-2 (trifluoromethyl)isonicotinamide as Raf inhibitors for the treatment of cancer” (NOVARTIS AG, priority 2019, dated 2025)
